Consider one compound from patent US20030143645A1, “Quinone reductase 2 and aldehyde dehydrogenase as therapeutic targets” (priority 2001, published 2003).

Assay [1] addresses T1, QR2 (Homo sapiens, UniProt P16083).
T1 sequence (P16083 1-231): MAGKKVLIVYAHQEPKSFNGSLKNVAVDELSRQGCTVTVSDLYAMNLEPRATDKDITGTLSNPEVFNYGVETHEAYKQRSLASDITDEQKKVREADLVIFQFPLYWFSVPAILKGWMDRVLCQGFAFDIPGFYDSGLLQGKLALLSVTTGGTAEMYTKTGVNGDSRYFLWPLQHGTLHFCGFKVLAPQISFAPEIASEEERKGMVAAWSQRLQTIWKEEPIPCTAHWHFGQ
Nature of the assay: hQR2 activity assay, enzyme purified from human RBC (Example 1). Type of assay: biochemical. The arrangement: Pure hALDH was eluted with 5 mM NADH and pure hQR2 with 5 mM NMeN; tissue Valley Biomedical (blood); host or cells: human red blood cells. Conditions: purified hQR2 from human RBC; menadione substrate; read-out: Kd(app). Here is the method:
ATP-affinity array chromatography. In whole mouse experiments, the animal (except for its tail, feet, skin and intestines) was frozen in liquid N2 and blended in buffer A containing 50 mM Hepes, pH 7.5, 50 mM NaCl, 10 mM MgCl2, 0.1% NONIDET- P40, 1 mM dithiothreitol, 1 μg/ml leupeptin, 100 μg/ml pefabloc and 10 μg/ml aprotinin. Mouse lysate was clarified by centrifugation for 1 hr at 100,000×g. For infected and non-infected RBC's˜1.5×10^9 cells were mixed with an equal volume of 2×buffer A, rocked for 30 min at 4° C., and clarified by centrifugation for 1 hr at 100,000×g. Supernatants were dialyzed overnight against 50 mM Hepes, pH 7.5, 50 mM NaCl, 10 mM MgCl2 and 1 mM dithiothreitol. […] Lysates were centrifuged twice at 125,000×g for 1 hr at 4° C. […] Pure hALDH was eluted with 5 mM NADH and pure hQR2 with 5 mM NMeN. The eluants were dialyzed overnight at 4° C. against 25 mM Tris pH 8.0 and 1 mM DTT. hALDHl was assayed as described in Table 2. Purified hQR2 was assayed at 22° C. in 100 μM N-methyldihydronicotinamide, 30 μM menadione, 0.1% Triton X-100, 50 mM Tris pH 8.5, 100 μM dicoumarol (unless stated otherwise).
For QR2 Kd apparent values determined using the expression [formula]
The Kd was determined as [formula]
Where Ao=rate in the absence of drug; Aapp=rate+drug; [M]=concentration of menadione.

For assay [2], the system named is purine binding proteome (hALDH1 and hQR2). Nature of the assay: ATP affinity array / ATP-Sepharose displacement elution of RBC purine binding proteome. Set-up: species or system human. On the procedure:
ATP-affinity array chromatography. In whole mouse experiments, the animal (except for its tail, feet, skin and intestines) was frozen in liquid N2 and blended in buffer A containing 50 mM Hepes, pH 7.5, 50 mM NaCl, 10 mM MgCl2, 0.1% NONIDET- P40, 1 mM dithiothreitol, 1 μg/ml leupeptin, 100 μg/ml pefabloc and 10 μg/ml aprotinin. Mouse lysate was clarified by centrifugation for 1 hr at 100,000×g. For infected and non-infected RBC's˜1.5×10^9 cells were mixed with an equal volume of 2×buffer A, rocked for 30 min at 4° C., and clarified by centrifugation for 1 hr at 100,000×g. Supernatants were dialyzed overnight against 50 mM Hepes, pH 7.5, 50 mM NaCl, 10 mM MgCl2 and 1 mM dithiothreitol. […] Proteins were resolved by 12% SDS-PAGE and visualized by staining either with Coomassie brilliant Blue R-250 or silver nitrate. Alternatively, proteins were transferred to membrane GeneMate (Kaysville, Utah) in transfer buffer (25 mM Tris, 200 mM glycine, 20% methanol, and 0.01% SDS) for mixed peptide sequencing (Damer et al, J. Biol. Chem. 273:24396 (1998)). hALDH 1 and hQR2 purification and activity assays. Fresh human red blood cells (RBC) were obtained from Valley Biomedical, washed twice with PBS, and lysed in buffer B (0.1% Triton X, 50 mM Tris pH 7.5, 125 mM NaCl, 1 μg/mL aprotonin, 1 μg/mL pepstatin and 10 μg/mL PEFABLOC). Lysates were centrifuged twice at 125,000×g for 1 hr at 4° C. Cleared supernatant was filtered through a […] filter and loaded onto PQ-Sepharose. Pure hALDH was eluted with 5 mM NADH and pure hQR2 with 5 mM NMeN. The eluants were dialyzed overnight at 4° C. against 25 mM Tris pH 8.0 and 1 mM DTT. hALDHl was assayed as described in Table 2. Purified hQR2 was assayed at 22° C. in 100 μM N-methyldihydronicotinamide, 30 μM menadione, 0.1% Triton X-100, 50 mM Tris pH 8.5, 100 μM dicoumarol (unless stated otherwise). N-methyldihydronicotinamide was synthesized (Ortiz-Maldonado et al, Biochemistry 38(50):16636-16647 (1999)) and stored in 100 mM Tris-sulfate pH 8.0.
An ATP affinity array was charged with RBC and P. falciparum (blood stage) infected RBC extract.
chromatography. P. falciparum-infected or non-infected RBCs were lysed by mixing with an equal volume of 2×buffer A and rocking for 30 min at 4° C. 1×buffer A: 50 mM Hepes, pH 7.5, 50 mM NaCl, 10 mM MgCl2, 0.1% NONIDET-P40, 1 mM dithiothreitol, 1 μg/ml leupeptin, 100 μg/ml pefabloc and 1 μg/ml aprotinin. […] Proteins were resolved by 12% SDS-PAGE and visualized by staining with Coomassie brilliant blue R-250 or silver nitrate. Alternatively, proteins were transferred to PVM membrane (Kaysville, Utah) for mixed peptide sequencing (Damer et al, J. Biol. Chem. 273(38):24396-24405 (1998)).
To better understand the mechanism of the quinolines, an attempt was made to identify all quinoline interacting proteins in a cell or animal lysate. To achieve this, a functional proteomics approach was used as outlined in FIG. 7. In this strategy, three different, yet complementary approaches were conducted to identify and validate targets of the quinolines. In step one, termed displacement affinity chromatography, a specific sub-proteome from a cell is captured on an affinity matrix by virtue of its interaction with an immobilized ligand (FIG. 7, Step 1). The sup-proteome is captured after application of saturating amounts of cell lysate and extensive washing of the resin. The compounds of interest (in this case, the quinolines) are then applied to the matrix in parallel and allowed to interact with the bound proteome. […] In the second step, affinity matrices were created by directly linking the quinoline drugs to Sepharose, and after application of cell lysates, all proteins that specifically eluted from these matrices in the presence of drug were identified (FIG. 7 Step 2).

In the case of `CCN(CC)CCCC(C)Nc1ccnc2cc(Cl)ccc12` (stereo not drawn) [CQ, chloroquine], the Kd in assay [1] stood at 24 µM. Further, the “proteins eluted from ATP-Sepharose (ALDH1 55 kDa, QR2 26 kDa)” value in assay [2] (RBC extract, 5 mM drug (Example 2)) was “selectively eluted proteins of 55 and 26 kDa”. In addition, in assay [2] (non-infected red cells, drug at [mM]), the “proteins eluted from ATP affinity array (hALDH1 and hQR2)” value was “selectively eluted two proteins”.
